Each structure is given as a SMILES string. Where a SMILES comes first, the peptide text is derived from it. [ ]: non-standard residue; d: D form. Nle = CCCC[C@H](N)C(=O)O

The values that follow come from patent US9399631B2, “Polyphenol proteasome inhibitors, synthesis, and methods of use” (UNIVERSITY OF SOUTH FLORIDA, priority 2003, dated 2016).

The target in assay [1] is T1, 20S eukaryotic proteasome (Oryctolagus cuniculus, UniProt G1T4Q9).
T1 construct: purchased BOSTON BIOCHEM (Cambridge, Mass.)
T1 sequence (G1T4Q9 1-263): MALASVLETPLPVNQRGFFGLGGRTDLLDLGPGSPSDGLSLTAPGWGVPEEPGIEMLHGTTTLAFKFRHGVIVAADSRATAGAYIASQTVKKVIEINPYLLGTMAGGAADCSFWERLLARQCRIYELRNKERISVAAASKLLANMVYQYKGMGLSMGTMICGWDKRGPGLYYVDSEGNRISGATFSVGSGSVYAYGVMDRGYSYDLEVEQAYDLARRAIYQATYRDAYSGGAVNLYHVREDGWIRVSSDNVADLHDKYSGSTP
The assay is described as follows: Inhibition of chymotrypsin-like activity of purified eukaryotic 20S proteasome (Suc-Leu-Leu-Val-Tyr-AMC). The class given is biochemical, rabbit. On the procedure: Materials. Highly purified tea polyphenols (−)-EGCG (>95%), (−)-GCG (>98%), (−)-ECG (>98%), (−)-CG (>98%), fetal calf serum, propidium iodide, 3-[4,5-dimethylthiazol-2-yl]-2,5-diphenyltetrazolium bromide (MTT), RNase A, and DMSO were purchased from Sigma (St. Louis, Mo.). (+)-EGCG, benzyl-protected-(+)-EGCG, (+)-GCG, (−)-EGCG-amide, and (+)-EGCG-amide were prepared by enantioselective synthesis (see below). Purified 20S eukaryotic proteasome from rabbit was purchased from BOSTON BIOCHEM (Cambridge, Mass.). Purified 20S prokaryotic proteasome (Methanosarcina thermophile, Recombinant, E. coli) was purchased from CALBIOCHEM (La Jolla, Calif.). Fluorogenic peptide substrates Suc-Leu-Leu-Val-Tyr-AMC (for the proteasomal chymotrypsin-like activity) was obtained from Calbiochem (La Jolla, Calif.). RPMI 1640 medium, Dulbecco's modified Eagle's medium, MEM non-essential amino acids solution, MEM-sodium pyruvate solution, penicillin, and streptomycin were from INVITROGEN (Carlsbad, Calif.). Monoclonal antibody to p27^Kip was purchased from PHARMINGEN (San Diego, Calif.); polyclonal antibodies to IκB-α, Bax and actin, and monoclonal antibody to ubiquitin were from SANTA CRUZ Biotechnology Inc. (Santa Cruz, Calif.).
(§1) Inhibition of purified 20S proteasome activity by natural or synthetic GTPs. Purified prokaryotic (0.5 μg) or eukaryotic (0.02 μg) 20S proteasome was incubated with 20 μM fluorogenic peptide substrate, Suc-Leu-Leu-Val-Tyr-AMC for 30 min at 37° C. in […] of assay buffer (50 mM Tris-HCl, pH 7.5), with or without a natural or synthetic tea polyphenol. After incubation, production of hydrolyzed 7-amido-4-methyl-coumarin (AMC) groups was measured using a multi-well plate VERSAFLUOR Fluorometer with an excitation filter of 380 nm and an emission filter of 460 nm (BIO-RAD), and a multi-well plate reader Wallac 1420 VICTORTM^2 with an excitation filter of 355 nm and an emission filter of 460 nm (EG&G WALLAC).
Purified prokaryotic (0.5 μg) or eukaryotic (0.02 μg) 20S proteasome was incubated with 20 μM fluorogenic peptide substrate, Suc-Leu-Leu-Val-Tyr-AMC for 30 minutes at 37° C. in 100 μl of assay buffer ([…] Tris-HCl, pH 7.5), with or without a natural or synthetic tea polyphenol. After incubation, production of hydrolyzed AMC groups was measured using a multi-well plate VERSAFLUOR Fluorometer with an excitation filter of 380 nm and an emission filter of 460 nm.
(−)-EGCG at 1 μM was incubated with eukaryotic 20S proteasome (0.02 μg) and suc-LLVY-AMC (20 μM) for the times indicated in FIG. 7. The chymotrypsin activity was measured and graphed in FIG. 7. Values are means from 4 independent experiments, and error bars represent standard deviations.
In the second experiment (−)-EGCG at 1 μM was pre-incubated with (SDS-pre) or without 0.01% SDS (no SDS) for 1 hour, followed by addition of eukaryotic 20S proteasome (0.02 μg) and suc-LLVY-AMC (20 μM). “SDS-post” represents the same treatment as “no SDS” except 0.01% SDS was added 1 hour after addition of the proteasome, (−)-EGCG and the substrate. AMC liberation was measured by fluorescence at each indicated time point and the percentage of chymotrypsin activity was determined. Values are means from 4 independent experiments, and error bars represent standard deviations.

Assay [2] concerns LNCaP cells. Nature of the assay: Soft agar colony formation assay. It is filed as cell-based, human. The settings on record: 50 μM, 14 day-incubation. The procedure: Soft Agar Assay. The soft agar assay was performed according to Smith et al. (Smith, D. M. et al. Mol Med, 2002, 8:382-392) with a few modifications. In brief, in a six-well plate, a bottom feeder layer (0.6% agar) was prepared with DMEM media containing 10% fetal bovine serum, 100 units/ml penicillin, and 100 μg/ml streptomycin. A top layer (0.3% agar) was prepared with DMEM and the same media as described above but containing 2×10^4 prostate cancer LNCaP cells and indicated analogs or DMSO as a control. Plates were incubated at 37° C. in 5% CO2 in a humidified incubator for two weeks. MTT (1 mg/ml) was added to each well and incubated overnight to allow complete formation of purple formazan crystals. The plates were then scanned and photographed, and the number of colonies was quantified by QUANTITY ONE v.4.0.3 software (Bio-Rad, Hercules, Calif.).
The […] effects of several GTP analogs were investigated with a soft agar assay that measures the transforming activity of human tumor cells. LNCaP cells were plated in soft agar (see Materials and Methods) along with 50 μM of GTP-1, -2, -3, (−)-EGCG (as a positive control; Smith, D. M. et al. Mol Med, 2002, 8:382-392, 2002), or the solvent (as a negative control), followed by a 14 day-incubation to allow for colony formation (FIGS. 12A and 12B).
In a second experiment, LNCaP cells were plated in soft agar along with 10 μM of each indicated GTP or solvent (H2O), followed by a 14 day-incubation to allow for colony formation (FIG. 21A). […] Colonies were quantified with an automated counter and presented as mean values from triplicate independent experiments. Error bars denote standard deviations.

In assay [3] the test system is LNCaP cells. The assay is described as follows: Western blot of proteasome target proteins in LNCaP cells. The class given is cell-based, human. Particulars: 50 μM, 3 to 12 hours. On the procedure:
(§2) Cell Culture, Cell Extract Preparation, and Western Blot Assay. Human leukemia Jurkat T and prostate cancer LNCaP cells were cultured in RPMI 1640 medium supplemented with 10% fetal calf serum, 100 units/ml of penicillin, and 100 μg/ml streptomycin. Human immortalized, non-transformed NK cells (YT cell line) (38) were cultured in RPMI 1640 supplemented with 1 mM MEM sodium pyruvate solution, 0.1 mM MEM non-essential amino acids solution, 10% fetal calf serum. 100 units/ml penicillin, and 100 μg/ml streptomycin. Normal (WI-38) and simian virus 40 (SV40)-transformed (VA-13) human fibroblasts were grown in Dulbecco's modified Eagle's medium supplemented with 10% fetal calf serum, 100 units/ml of penicillin and 100 μg/ml of streptomycin. All cells were maintained at 37° C. in a humidified incubator with an atmosphere of 5% CO2. A whole cell extract was prepared in accordance with An et al. (An, B. et al. Cell Death Differ, 1998, 5:1062-75). Briefly, cells were harvested, washed with PBS twice, and homogenized in a lysis buffer [50 mM Tris-HCl (pH 8.0), 5 mM EDTA, 150 mM NaCl, 0.5% NP-40, 0.5 mM phenylmethylsulfonyl fluoride, and 0.5 mM dithiothreitol] for 30 min at 4° C. Afterwards, lysates were centrifuged at 12,000×g for 15 min at 4° C., and the supernatants were collected as whole cell extracts. Equal amounts of protein extract (60 μg) were resolved by SDS-polyacrylamide gel electrophoresis and transferred to a nitrocellulose membrane using a Semi-Dry Transfer system (BIO-RAD, Hercules, Calif.). Jurkat T, LNCaP, or DU-145 cells were treated with various concentrations of synthetic or natural tea polyphenols for indicted hours. The enhanced chemiluminescence (ECL) Western blot analysis was then performed using specific antibodies to the proteins of interest (p^27kip, IκB-α, PARP, Bax or actin). The ratio of p27 or IκB-α to the corresponding actin was determined by scanning intensities of the protein bands.
To investigate whether (−)-EGCG-amide and (+)-EGCG-amide inhibit intact tumor cell proteasome activity, human prostate cancer LNCaP cells were treated with 25 μM of (−)- or (+)-EGCG-amide for up to 9 hours, followed by measurement of p27, IκB-α and Bax, three well-known proteasome target proteins (Pagano, M. et al. Science, 1995, 269:682-685; An, B. et al. Cell Death Differ, 1998, 5:1062-75; Sun, J. et al. Cancer Res, 2001, 61:1280-1284; Palombella, V. J. et al. Cell, 1994, 78:773-785; Thompson, J. E. et al. Cell, 1995, 80:573-582; Perkins, N. D. Trends Biochem Sci, 2000, 25:434-440; Chang, Y. C. et al. Cell Growth Differ, 1998, 9:79-84; Li, B. and Dou, Q. P. Proc Natl Acad Sci USA, 2000, 97:3850-3855; Nam, S. et al. Cancer Epidemiol Biomarkers Prey, 2001, 10:1083-1088). In this experiment (−)-EGCG and (+)-EGCG were used as positive controls.
Having determined that the synthetic GTP-1 to −5 analogs are able to inhibit the proteasomal chymotrypsin-like activity in vitro (FIG. 8), these compounds were investigated for their potency in inhibiting intact tumor cellular proteasome activity. To do so, human prostate cancer LNCaP cells were treated with one of these compounds for the indicated hours, followed by measuring levels of proteasome target proteins, p27, IκB-α, and Bax, and polyubiquitinated proteins.

In assay [4] the target is T2, purified 20S proteasome (UniProt G1T4Q9).
T2 construct: IC50; other: chymotrypsin-like activity of purified 20S proteasome
The assay is described as follows: Inhibition of chymotrypsin-like activity of purified 20S proteasome (source not stated). It is filed as biochemical. The settings on record: chymotrypsin-like activity of purified 20S proteasome. On the procedure:
as §1

The next assay concerns VA-13 cells. Nature of the assay: Western blot of p27 in SV40-transformed VA-13 fibroblasts. It is filed as cell-based, human. The settings on record: 25 μM, 12 hours. The procedure:
as §2
Normal WI-38 and SV40-transformed VA-13 cell lines were treated with 25 μM of (−)-EGCG, (−)-EGCG-amide, (+)-EGCG, (+)-EGCG-amide, or GTP-1 for either 12 hours or 36 hours.

In assay [5] the target is purified 20S proteasome (UniProt Q9P992). The assay is described as follows: Inhibition of chymotrypsin-like activity of purified 20S proteasome (source not stated). Further details: other: 1 μM; other: 10 μM. The class given is biochemical. On the procedure:
as §1

Chain of purified 20S proteasome (UniProt Q9P992) (Q9P992 whole entry): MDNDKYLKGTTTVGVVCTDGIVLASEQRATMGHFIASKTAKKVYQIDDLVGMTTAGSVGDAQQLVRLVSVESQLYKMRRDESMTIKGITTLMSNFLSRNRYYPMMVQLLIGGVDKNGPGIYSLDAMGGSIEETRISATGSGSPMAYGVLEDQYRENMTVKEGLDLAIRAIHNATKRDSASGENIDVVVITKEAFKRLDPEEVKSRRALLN

Regarding `O=C(O[C@@H]1Cc2c(O)cc(O)cc2O[C@@H]1c1ccc(O)c(O)c1)c1cc(O)c(O)c(O)c1` [(−)-ECG], in assay [1] (chymotrypsin-like activity, rabbit 20S proteasome), the half-inhibitory concentration (IC50) was 0.71 µM.
With `O=C(O[C@H]1CCCC[C@H]1OC(=O)c1cc(O)c(O)c(O)c1)c1cc(O)c(O)c(O)c1` [GTP-1], the “colony formation (LNCaP transformation capability)” value (from here on “colony formation”) in the assay on LNCaP cells [2] is recorded as “completely blocked LNCaP transformation capability”. Further, in the assay with LNCaP cells [3], the “levels of polyubiquitinated proteins” value was “caused accumulation of polyubiquitinated proteins”; the “levels of proteasome target proteins (p27, IκB-α)” value was “increased levels of p27, IκB-α, and Bax proteins at as early as 3 hours”. This molecule also displayed an IC50 at purified 20S proteasome [4] of 1.9 µM. Moreover, the “levels of p27 protein” value with VA-13 cells was “significantly increased levels of p27 protein”.
Turning to `O=C(N[C@H]1CCCC[C@H]1NC(=O)c1cc(O)c(O)c(O)c1)c1cc(O)c(O)c(O)c1` [GTP-2], the “colony formation” value in the assay on LNCaP cells [2] was “completely blocked LNCaP transformation capability”. Besides, the 50% inhibitory concentration (IC50) against purified 20S proteasome [4] is 2.5 µM.
Take `O=C(N[C@H]1CCCC[C@@H]1NC(=O)c1cc(O)c(O)c(O)c1)c1cc(O)c(O)c(O)c1` [GTP-3]: in the assay on LNCaP cells [2], the “colony formation” value was “completely blocked LNCaP transformation capability”. Further, in the assay with LNCaP cells [3], the “levels of Bax protein” value was “transiently increased levels of Bax protein”; the “levels of polyubiquitinated proteins” value is “greatly increased levels of p27, IκB-α, and ubiquitinated proteins”; the “levels of proteasome target proteins (p27, IκB-α)” value was “greatly increased levels of p27, IκB-α, and ubiquitinated proteins”. On purified 20S proteasome [4], this molecule came in with an IC50 of 1.5 µM.
With `CCCC[C@@H](C=O)NC(=O)[C@H](CC(C)C)NC(=O)[C@H](CC(C)C)NC(C)=O` [LLnL, reference compound] (Ac-Leu-Leu-[Nle]-aldehyde), the “inhibition of proteasomal activity” value amounted to 20% against purified 20S proteasome [5] (1 μM) and 70% against purified 20S proteasome [5] (10 μM).
With `O=c1c(-c2ccc(O)cc2)coc2cc(O)cc(O)c12` [genistein], the midpoint of inhibition in assay [1] (chymotrypsin-like activity of purified 20S proteasome), the IC50, lay at 26 µM.
